This note sets out measurements from patent US7223791B2, “Function regulator for retinoid relative receptor” (Takeda Pharmaceutical Company Limited, priority 2001, dated 2007).

The test system of one data set is KKA^y mice. The data set is described as follows: Glucose-lowering and lipid-lowering (triglyceride-lowering) actions in mice. The following applies: test compound 0.01% in powdery diet for four days, non-administration group taken as 100%; for glucose-lowering action (%): reduction percent of blood glucose level; for lipid-lowering action (%): reduction percent of blood triglyceride level. Type of data set: in vivo. The source says:
Glucose-Lowering and Lipid-Lowering (Triglyceride-Lowering) Actions in Mice
Test compounds were mixed in a powdery diet (CE-2, Japan Clea) at the proportion of 0.01%, and freely given to KKA^y mice (9 to 12 weeks old, 5 mice per group), a model of obesity-non-insulin dependent diabetes mellitus (type 2 diabetes mellitus), for four days. During this period, water was given freely. Blood was sampled from orbital venous plexus, and glucose and triglyceride levels in plasma separated from the blood were determined enzymatically using L type Wako Glu2 (Wako Pure Chemical Industries, Ltd.) or L type Wako TG-H (Wako Pure Chemical Industries, Ltd.), respectively. The results are given in [Table 1].
In the Table, “glucose-lowering action (%)” represents a reduction percent (%) of the blood glucose level in a test compound administration group when the blood glucose level in a test compound non-administration group is taken as 100%. In addition, “lipid-lowering action (%)” represents a reduction percent (%) of the blood triglyceride level in the test compound administration group when the blood triglyceride level in the test compound non-administration group is taken as 100%.

The target of another data set is T1, PPARγ-RXRα heterodimer (Homo sapiens, UniProt P19793+P37231).
T1 construct: 1.4 kb DNA fragment containing PPARγ gene was recovered from the gel; 1.4 kb DNA fragment containing RXRα gene was recovered from the gel; expressed in transfected cells
T1 sequence (P37231 1-477 isoform P37231-2): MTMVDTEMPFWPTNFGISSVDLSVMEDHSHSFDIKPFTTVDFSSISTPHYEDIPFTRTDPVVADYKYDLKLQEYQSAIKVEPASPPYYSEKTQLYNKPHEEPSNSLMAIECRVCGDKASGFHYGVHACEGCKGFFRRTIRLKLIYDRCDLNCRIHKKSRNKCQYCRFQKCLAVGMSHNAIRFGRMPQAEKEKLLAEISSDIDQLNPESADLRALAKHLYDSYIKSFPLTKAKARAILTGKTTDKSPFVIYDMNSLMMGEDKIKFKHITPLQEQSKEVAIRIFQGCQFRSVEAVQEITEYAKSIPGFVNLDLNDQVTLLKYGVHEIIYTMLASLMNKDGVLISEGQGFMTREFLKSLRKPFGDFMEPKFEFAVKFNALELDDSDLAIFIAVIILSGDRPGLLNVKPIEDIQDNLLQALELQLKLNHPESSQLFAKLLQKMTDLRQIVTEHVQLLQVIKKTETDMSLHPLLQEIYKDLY
T1 sequence (P19793 1-462): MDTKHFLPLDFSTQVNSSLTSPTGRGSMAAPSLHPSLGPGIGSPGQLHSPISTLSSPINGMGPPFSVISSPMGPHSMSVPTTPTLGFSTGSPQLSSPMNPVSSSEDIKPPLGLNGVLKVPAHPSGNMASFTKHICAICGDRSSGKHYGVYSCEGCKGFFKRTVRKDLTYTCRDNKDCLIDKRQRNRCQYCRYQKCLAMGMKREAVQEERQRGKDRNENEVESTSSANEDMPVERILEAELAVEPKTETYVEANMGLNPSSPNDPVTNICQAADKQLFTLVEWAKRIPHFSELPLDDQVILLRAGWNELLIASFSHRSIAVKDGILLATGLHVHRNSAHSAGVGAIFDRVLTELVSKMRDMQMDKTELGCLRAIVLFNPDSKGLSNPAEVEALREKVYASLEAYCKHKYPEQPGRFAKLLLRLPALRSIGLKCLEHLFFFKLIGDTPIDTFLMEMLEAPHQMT
The data set is described as follows: PPARγ-RXRα heterodimer ligand activity (luciferase reporter, PPARγ:RXRα:4ERPP/CHO-K1 cells). Type of data set: cell-based. As to conditions: 48 hrs, concentration for 50% of the maximum fold induction. As for the experimental part: (PPARγ-RXRα Heterodimer Ligand Activity)
PPARγ: RXRα: 4ERPP/CHO-K1 cells obtained in the following Reference Example 5 were cultured in HAM F12 medium (manufactured by NISSUI SEIYAKU) containing 10% fetal bovine serum [manufactured by Life Technologies, Inc., USA], seeded in a 96-well white plate [manufactured by Corning Coster Corporation, USA] at the density of 2×10^4 cells/well and cultured in a CO2 gas incubator at 37° C. overnight.
After washing the 96-well white plate with PBS (Phosphate-buffered saline), 90 μl of HAM F12 medium containing 0.1% fatty acid-free bovine serum albumin (BSA) and 10 μl of test compound were added, and the cells were cultured in a CO2 gas incubator at 37° C. for 48 hrs. The medium was removed and 40 μl of PicaGene 7.5 (manufactured by Wako Pure Chemical Industries, Ltd.) was added. After stirring, the luciferase activity was determined using Lumistar [manufactured by BMG Labtechnologies GmbH, Germany].
The fold induction was calculated from the luciferase activity of each test compound when the luciferase activity of the test compound non-administration group is taken as 1. The values of the test compound concentration and the fold induction were analyzed using PRISM 2.01 (produced by GraphPad Software Inc. USA) to calculate the EC50 values, the concentration of a test compound for 50% of the maximum fold induction. The results are shown in [Table 2].
Introduction of Human PPARγ- and RXRα-Expression Plasmid and Reporter Plasmid into CHO-K1 Cell as Well as Establishment of Expressed Cell
A CHO-K1 cell cultured in a tissue culture flask (750 ml) [produced by Corning Costar Corporation, USA] containing HAM F12 medium (produced by NISSUI SEIYAKU) supplemented with 10% fetal bovine serum [produced by Life Technologies, Inc., USA] was scraped by treating with 0.5 g/L trypsin-0.2 g/L EDTA (ethylenediamine tetraacetate) [produced by Life Technologies, Inc., USA], and then the cell was washed with PBS (Phosphate-buffered saline)[produced by Life Technologies, Inc., USA], centrifuged (1000 rpm, 5 minutes) and suspended in PBS. Subsequently, DNA was introduced into the cell under the conditions shown below using GENE PULSER (produced by Bio-Rad Laboratories, USA).
Namely, to a cuvette having a 0.4 cm gap were added 8×10^6 cells and 10 μg of plasmid pVgRXR2-hPPARγ obtained in Reference Example 3 and 10 μg of reporter plasmid pGL3-4ERPP-TK neo obtained in Reference Example 4, which was subjected to electroporation at the voltage of 0.25 kV under the capacitance of 960 μF. Subsequently, the cell was transferred into a HAM F12 medium containing 10% fetal bovine serum and cultured for 24 hours, and then the cell was scraped again and centrifuged, and then suspended in HAM F12 medium containing 10% fetal bovine serum supplemented with 500 μg/ml of Geneticin [produced by Life Technologies, Inc., USA] and 250 μg/ml of Zeocin (produced by Invitrogen, USA). The obtained suspension was diluted to the density of 10^4 cells/ml and inoculated in a 96-well plate [produced by Corning Costar Corporation, USA], which was cultured in a CO2 gas incubator at 37° C., whereby obtaining a Geneticin- and Zeocin-resistant transformant.
Subsequently, after the transformant cell line thus obtained was cultured in a 24-well plate [produced by Corning Costar Corporation, USA], a cell line in which the luciferase was expressed and induced, i.e., PPARγ: RXRα: 4ERPP/CHO-K1 cell was selected by the addition of 10 μM pioglitazone hydrochloride.
Background: Reporter assays use an easily measured gene product as a stand-in for the process of interest.

Broadly, the melting point is the temperature, or range, at which the solid turns liquid. What is called EC50 is the concentration giving half of the maximal effect. Low readings indicate an effect from little substance, high ones a need for much substance. On to `O=C(O)c1ccc(-c2ccc(-c3ccc(Cl)cc3)s2)cc1` [Example 15, 4-[5-(4-chlorophenyl)-2-thienyl]benzoic acid], for which the melting point is 285 to 286 °C. Moreover, in the data set on KKA^y mice, the “glucose-lowering action (%)” value amounted to 30% and the “lipid-lowering action (%)” value is recorded as 54%. At PPARγ-RXRα heterodimer, the EC50 was found to be 22 nM.
On the same counts, the results for `O=C(O)c1ccc(-c2ccc(-c3ccc(C(F)(F)F)cc3)o2)cc1` [Example 10, 4-[5-(4-trifluoromethylphenyl)-2-furyl]benzoic acid] are 270 to 271 °C, 37%, 62% and 3.8 nM.
For `COC(=O)c1ccc(-c2nnc(-c3ccc(C(F)(F)F)cc3)s2)cc1` [Example 58, methyl 4-[5-(4-trifluoromethylphenyl)-1,3,4-thiadiazol-2-yl]benzoate], the melting point is 218 to 219 °C. In the data set with KKA^y mice, the “glucose-lowering action (%)” value came to 37% and the “lipid-lowering action (%)” value is reported as 48%.
Compound `Cn1c(-c2ccc(C(=O)O)cc2)ccc1-c1ccc(C(F)(F)F)cc1` [Example 7, 4-[1-methyl-5-(4-trifluoromethylphenyl)-2-pyrrolyl]benzoic acid] registered a melting point of 260 to 261 °C. Further, a half-maximal effect at PPARγ-RXRα heterodimer (EC50) was put at 7.6 nM.
